Test results taken from patent publication US20250188043A1 (ReproNovo SA, priority 2023, published 2025).

Tests used:
[1] = Long term storage stability of crystalline Form A leflutrozole; format: physicochemical
Protocol: The test for determination of the amount of related substance impurities uses reverse phase HPLC analysis with UV detection (230 nm). The solvents are acetonitrile/water/diammonium hydrogen phosphate buffer/O-phosphirc acid 85%. The column is Macherey Nagel, Nucleosil 100 C18HD (length=150 mm, internal diameter 3.0 mm) or equivalent L1 USP HPLC Columns.
Stability data under accelerated conditions are for up to 6 months at 40° C./75% RH and up to 3 months at 50° C. […].
Packaging A: Double low density polyethylene bags in fiber drugms; water permeation <14.0 mg/day/L. Packaging D: Brown glass bottles type C sealed in triple laminated foil bags or quadruple laminated foil bags of type B; water permeation <0.5 mg/day/L. Packaging H: Double polythene bags, sealed, in 400 mL mini-metallic drugs; water permeation 5 mg/day/L. Packaging J: HDPE bottles from Nalgene (30 mL) with polypropylene screw caps and sealed in alubags of type B. Packaging K: Polyethylene bag containing the drug inside quadruple laminated foil bags; water permeation <0.5 mg/day/L.

[2] = molecular target: T1, CYP2E1 (Homo sapiens, UniProt P05181); assay: CYP inhibition, pooled human liver microsomes, probe substrates; format: in vitro ADME; conditions: up to 100 μM
T1 construct: assessed by pooled human liver microsomes using enzyme selective probe substrates; from tissue; host or cells: pooled human liver microsomes

[3] = molecular target: T2, CYP2D6 (Homo sapiens, UniProt P10635); assay: as above; format: in vitro ADME; conditions: up to 100 μM
T2 construct: assessed by pooled human liver microsomes using enzyme selective probe substrates; from tissue; host or cells: pooled human liver microsomes

[4] = molecular target: T3, breast cancer resistance protein (Homo sapiens, UniProt Q9UNQ0); assay: Breast cancer resistance protein inhibition; format: in vitro ADME; conditions: at concentrations above 200 μM
T3 sequence (Q9UNQ0 1-655): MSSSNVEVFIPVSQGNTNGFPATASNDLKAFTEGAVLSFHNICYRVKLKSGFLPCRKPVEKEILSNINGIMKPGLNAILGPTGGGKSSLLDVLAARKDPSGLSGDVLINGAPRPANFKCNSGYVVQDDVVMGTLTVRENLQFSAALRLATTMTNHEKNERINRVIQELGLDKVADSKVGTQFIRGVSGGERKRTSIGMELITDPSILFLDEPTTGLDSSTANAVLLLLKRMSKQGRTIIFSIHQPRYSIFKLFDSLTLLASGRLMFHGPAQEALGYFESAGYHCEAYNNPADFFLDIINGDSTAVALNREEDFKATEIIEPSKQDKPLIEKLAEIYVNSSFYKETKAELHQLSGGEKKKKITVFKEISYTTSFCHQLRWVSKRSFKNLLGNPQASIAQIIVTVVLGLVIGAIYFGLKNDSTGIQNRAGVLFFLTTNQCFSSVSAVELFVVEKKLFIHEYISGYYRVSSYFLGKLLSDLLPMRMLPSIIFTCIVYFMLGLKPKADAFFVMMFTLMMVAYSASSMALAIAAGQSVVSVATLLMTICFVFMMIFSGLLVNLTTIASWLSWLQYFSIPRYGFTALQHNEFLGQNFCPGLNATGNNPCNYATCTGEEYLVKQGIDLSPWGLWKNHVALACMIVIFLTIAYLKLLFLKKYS

[5] = Excretion/elimination of 14C-labeled leflutrozole after oral dosing; format: in vivo; conditions: female rats
[6] = molecular target: T4, CYP2A6 (Homo sapiens, UniProt P11509); assay: CYP inhibition, pooled human liver microsomes, probe substrates; format: in vitro ADME
T4 construct: assessed by pooled human liver microsomes using enzyme selective probe substrates; from tissue; host or cells: pooled human liver microsomes
T4 sequence (P11509 1-494): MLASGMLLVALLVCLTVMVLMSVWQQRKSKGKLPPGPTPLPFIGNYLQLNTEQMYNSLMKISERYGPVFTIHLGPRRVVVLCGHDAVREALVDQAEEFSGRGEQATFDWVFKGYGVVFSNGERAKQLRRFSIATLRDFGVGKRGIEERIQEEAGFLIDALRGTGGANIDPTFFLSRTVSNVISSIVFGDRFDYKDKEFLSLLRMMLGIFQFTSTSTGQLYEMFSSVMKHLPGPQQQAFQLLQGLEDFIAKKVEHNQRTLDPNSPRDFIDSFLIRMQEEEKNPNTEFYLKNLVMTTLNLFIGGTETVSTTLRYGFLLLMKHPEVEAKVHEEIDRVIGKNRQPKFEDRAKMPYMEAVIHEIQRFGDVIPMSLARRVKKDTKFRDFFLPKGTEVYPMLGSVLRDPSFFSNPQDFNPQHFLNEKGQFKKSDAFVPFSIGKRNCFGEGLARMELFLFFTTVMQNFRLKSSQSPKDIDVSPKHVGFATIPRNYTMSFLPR

[7] = molecular target: T5, CYP2C19 (Homo sapiens, UniProt P33261); assay: as above; format: in vitro ADME; conditions: up to 100 μM
T5 construct: assessed by pooled human liver microsomes using enzyme selective probe substrates; from tissue; host or cells: pooled human liver microsomes

[8] = Dissolution experiments with capsules; format: physicochemical; conditions: drug substance particle sizes up to D90 ≤35 μm
[9] = Cellular transport by Caco-2 assay; format: in vitro ADME, humans; conditions: human
Description: (§1) The ratio of B-A/A-B is 0.43.

[10] = tested on: Caco-2 cell model; assay: Cellular transport by Caco-2 assay; format: in vitro ADME, humans
Description: as §1

[11] = Metabolic stability in rat liver microsomes; format: in vitro ADME
[12] = Metabolic stability in human liver microsomes; format: in vitro ADME
[13] = Pharmacokinetics in rats; format: in vivo; conditions: for AUC(0-inf) / half-life / AUC(0-t) / Cmax: 1 mg/kg; for AUC(0-t): AUC 0-24^1/48^2 h
[14] = 36 months, 25° C., double polyethylene liner and black polyethylene keg
[15] = more than 36 months at room temperature
[16] = rat, in vivo, iv, 1 mg/kg i.v., PEG200-0.9% Saline-solution 40/60
[17] = rat, in vivo, po, 1 mg/kg p.o., PEG200-water-solution 40/60
[18] = rat, in vivo, po, 1 mg/kg p.o., Suspension 0.5% HPC

T5 sequence (P33261 whole entry): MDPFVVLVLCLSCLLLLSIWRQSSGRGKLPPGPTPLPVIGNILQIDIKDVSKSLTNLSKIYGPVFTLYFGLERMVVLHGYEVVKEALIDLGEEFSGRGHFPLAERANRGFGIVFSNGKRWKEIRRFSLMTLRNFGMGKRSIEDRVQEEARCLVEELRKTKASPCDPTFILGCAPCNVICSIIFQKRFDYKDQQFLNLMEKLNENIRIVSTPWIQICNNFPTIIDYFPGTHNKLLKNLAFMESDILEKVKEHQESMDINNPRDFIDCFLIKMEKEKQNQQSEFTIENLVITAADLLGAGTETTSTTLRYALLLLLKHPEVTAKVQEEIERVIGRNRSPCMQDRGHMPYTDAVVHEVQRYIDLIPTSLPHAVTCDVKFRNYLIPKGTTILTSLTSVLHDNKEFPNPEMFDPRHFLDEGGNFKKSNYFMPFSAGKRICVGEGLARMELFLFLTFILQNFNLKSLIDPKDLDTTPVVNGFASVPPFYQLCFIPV
T2 sequence (P10635 whole entry): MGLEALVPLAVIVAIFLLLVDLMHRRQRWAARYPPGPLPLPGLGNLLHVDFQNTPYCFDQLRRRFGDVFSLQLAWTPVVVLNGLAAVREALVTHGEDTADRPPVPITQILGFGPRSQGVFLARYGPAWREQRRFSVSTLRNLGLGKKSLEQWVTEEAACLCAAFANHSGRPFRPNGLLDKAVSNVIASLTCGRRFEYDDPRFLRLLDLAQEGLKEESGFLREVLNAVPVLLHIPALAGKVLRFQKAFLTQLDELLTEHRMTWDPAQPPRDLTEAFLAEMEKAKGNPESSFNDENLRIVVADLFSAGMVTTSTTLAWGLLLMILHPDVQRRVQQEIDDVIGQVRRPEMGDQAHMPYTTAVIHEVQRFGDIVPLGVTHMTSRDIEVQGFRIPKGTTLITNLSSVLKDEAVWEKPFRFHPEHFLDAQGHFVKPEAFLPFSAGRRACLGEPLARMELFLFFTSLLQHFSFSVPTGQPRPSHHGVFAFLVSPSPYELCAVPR
T1 sequence (P05181 whole entry): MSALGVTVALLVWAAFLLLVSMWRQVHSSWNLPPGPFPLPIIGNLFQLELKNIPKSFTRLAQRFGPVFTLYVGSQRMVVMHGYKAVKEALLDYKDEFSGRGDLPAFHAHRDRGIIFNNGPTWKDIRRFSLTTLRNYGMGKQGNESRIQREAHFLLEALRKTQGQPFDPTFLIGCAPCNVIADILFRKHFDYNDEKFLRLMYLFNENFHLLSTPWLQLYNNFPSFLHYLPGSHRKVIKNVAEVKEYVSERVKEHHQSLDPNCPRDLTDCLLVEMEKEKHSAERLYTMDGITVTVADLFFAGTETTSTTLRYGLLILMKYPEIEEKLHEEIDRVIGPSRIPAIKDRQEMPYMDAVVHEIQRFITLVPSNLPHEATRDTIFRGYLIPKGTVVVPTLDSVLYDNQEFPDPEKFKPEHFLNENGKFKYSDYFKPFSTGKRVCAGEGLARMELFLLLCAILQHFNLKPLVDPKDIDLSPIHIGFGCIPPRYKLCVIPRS

For `N#Cc1ccc(C(F)(c2ccc(C#N)cc2)n2cncn2)cc1` [Form A leflutrozole, 4-[(4-cyanophenyl)-fluoro-(1,2,4-triazol-1-yl)methyl]benzonitrile], the “Combined related substance impurities” value ([1]; 5° C. ± 3° C. in packaging D, Initial) was 0.60%, the “Combined related substance impurities” value ([1]; 25° C./60% RH in packaging K, 3 months) was 0.60% and the “Combined related substance impurities” value ([1]; 25° C./60% RH in packaging K, Initial) was 0.60%. The “impurity Q2 (substance of unknown structure)” value [1, 14] was 0.11 % w/w, the “impurity compound of formula (III)” value [1, 14] was 0.14 % w/w and the “Combined related substance impurities” value ([1]; 40° C./75% RH in packaging A, 3 months) was 0.60%. For the same compound, the “Combined related substance impurities” value ([1]; 40° C./75% RH in packaging A, Initial) was 0.60%, the “Combined related substance impurities” value ([1]; 40° C./75% RH in packaging D, Initial) was 0.60% and the “Combined related substance impurities” value ([1]; 40° C./75% RH in packaging K, 6 months) was 0.60%. The “Combined related substance impurities” value ([1]; 40° C./75% RH in packaging K, Initial) was 0.60%, the “Combined related substance impurities” value ([1]; 50° C./≤30% RH in packaging D, Initial) was 0.60% and the “Combined related substance impurities” value ([1]; 50° C./≤30% RH in packaging K, Initial) was 0.60%. The “stability of drug substance on storage (in words)” value ([1]; long term and accelerated storage conditions) was “very stable under all storage conditions”, the individual impurity developed [1, 15] was ≤ 0.8 % HPLC peak area and the “total amount of impurities” value [1, 15] was ≤ 2.0 % of the total HPLC peak area. For the same compound, the “time stable at room temperature” value ([1]; room temperature) was “more than 36 months”, the “Combined related substance impurities” value ([1]; −20° C. ± 5° C./ambient RH in packaging D, Initial) was 0.60% and the “Combined related substance impurities” value ([1]; −20° C. ± 5° C./ambient RH in packaging K, Initial) was 0.60%.

For `N#Cc1ccc(C(F)(c2ccc(C#N)cc2)n2cncn2)cc1` [leflutrozole, 4-[(4-cyanophenyl)-fluoro-(1,2,4-triazol-1-yl)methyl]benzonitrile], the IC50 [2] was > 50 µM, the IC50 [3] was > 50 µM and the “inhibition of breast cancer resistance protein” value [4] was “not determined to be an inhibitor”. The “predominant mechanism of elimination” value [5] was “metabolism”, the “unchanged leflutrozole excreted via urine” value ([5]; oral dosing) was 9% and the half-life ([5]; rat, plasma, oral) was 78 h. For the same compound, the Ki [6] was 2.56 µM, the IC50 [7] was > 50 µM and the “influence of particle size on dissolution of capsules” value [8] was “no relevant influence on dissolution”. The Papp A→B ([9]; read-out: apparent permeability, apical to basolateral) was 54.5 ×10⁻⁶ cm/s, the Papp B→A ([9]; read-out: apparent permeability, basolateral to apical) was 23.2 ×10⁻⁶ cm/s and the “apparent permeability (in words)” value [10] was “very high apparent permeability”. The “contribution of efflux transporters such as P-glycoprotein” value [10] was “no detectable contribution of efflux transporters”, the CLint scaled [11] was < 4.6 mL/min/kg and the half-life [11] was > 5 h. The half-life [12] was 3.35 h, the CLint scaled ([12]; read-out: intrinsic clearance (CLint)) was 6.9 mL/min/kg and the “BAV 0-inf” value ([13]; 1 mg/kg p.o., Suspension 0.5% HPC) was ≥100%. It also gave a clearance [13, 16] of 0.383 mL/min, an AUC(0-inf) [13, 16] of 123 µM·h and a half-life ([13]; rat, in vivo, iv, 1 mg/kg i.v., PEG200-0.9% Saline-solution 40/60, read-out: T1/2 (converted)) of 33.1 h. For the same compound, the AUC(0-t) [13, 16] was 79.4 µM·h, the AUC(0-inf) [13, 17] was 143 µM·h and the Cmax [13, 17] was 1750 nM. The half-life ([13]; rat, in vivo, po, 1 mg/kg p.o., PEG200-water-solution 40/60, read-out: T1/2 (converted)) was 49.7 h, the AUC(0-inf) [13, 18] was 245 µM·h and the Cmax [13, 18] was 1810 nM. It also gave a half-life ([13]; rat, in vivo, po, 1 mg/kg p.o., Suspension 0.5% HPC, read-out: T1/2 (converted)) of 101 h, an AUC(0-t) [13, 17] of 70.2 µM·h and an AUC(0-t) [13, 18] of 163 µM·h. The half-life ([13]; rat, in vivo, po, read-out: half-life (converted)) was 101 h.
